This note sets out measurements from US7956085B2, “1,4-benzothiepine 1,1-dioxide derivatives substituted by benzyl radicals, method for their preparation, pharmaceuticals comprising these compounds, and the use thereof” (Sanofi-Aventis Deutschland GmbH, priority 2006, dated 2011).

This experiment deals with T1, human IBAT (Homo sapiens, UniProt Q12908).
T1 construct: Bases 599 to 1645 correspond to the complete coding region of human IBAT; expressed in transfected cells
T1 sequence (Q12908 1-348): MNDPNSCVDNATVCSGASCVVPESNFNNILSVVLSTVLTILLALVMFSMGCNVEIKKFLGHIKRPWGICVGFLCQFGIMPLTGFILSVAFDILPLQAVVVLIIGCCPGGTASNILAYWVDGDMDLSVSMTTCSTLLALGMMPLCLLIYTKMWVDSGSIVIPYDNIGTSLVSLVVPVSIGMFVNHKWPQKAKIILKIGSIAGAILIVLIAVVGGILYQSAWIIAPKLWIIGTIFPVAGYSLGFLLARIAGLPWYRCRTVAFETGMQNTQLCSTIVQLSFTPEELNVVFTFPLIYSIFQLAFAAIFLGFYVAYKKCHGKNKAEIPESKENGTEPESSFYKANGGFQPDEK
Put plainly: In vitro IBAT inhibition assay: IBAT-dependent uptake of [3H]-taurocholic acid into CHO-hIBAT cells. It is filed as cell-based. Particulars: 10 μM taurocholic acid, 60 min at room temperature, read-out: IC-50 (human IBAT). The text has this:
Preparation and Procedure for the In Vitro IBAT Inhibition Assay:
1. Cloning of an Expression Vector for Human IBAT
The cDNA (complementary deoxyribonucleic acid) of human IBAT was cloned by standard methods of molecular biology as described for example in Molecular Cloning: A Laboratory Manual by Joseph Sambrook and David Russell, and introduced into the pcDNA1 vector from Invitrogen. […] Bases 599 to 1645 correspond to the complete coding region of human IBAT.
2. Preparation of a Recombinant Cell Line with Constitutive Expression of Human IBAT
The expression vector for human IBAT was introduced by stable transfection into CHO (chinese hamster ovary) cells. To select single cell clones, 400 μg/ml Geneticin was added to the cell culture medium (Ham's F12 medium supplemented with 10% fetal calf serum, 100 units/ml penicillin, 100 units/ml streptomycin). The functionality of the single cell clones resulting from the selection was assayed via their uptake activity for radiolabeled taurocholic acid ([^3H]-TCA). The cell clone with the highest uptake activity for [^3H]-TCA, referred to hereinafter as CHO-hIBAT, was selected for the further assays and further cultured in the presence of 400 μg/ml Geneticin.
3. Measurement of The Inhibitory Effect of The Compound of The Invention on The IBAT-Dependent Uptake of Taurocholic Acid into Cells
CHO-hIBAT cells were seeded in a concentration of 40 000 cells per well in poly-D-lysine-coated 96-well plates in cell culture medium and cultured for 24 h. The cells were then washed once with sodium-free transport assay buffer (140 mM choline chloride, 2 mM potassium chloride, 1 mM magnesium chloride, 1 mM calcium chloride, 10 mM HEPES/Tris, pH 7.5) and subsequently incubated either with sodium-free transport assay buffer as negative control or with sodium-containing transport assay buffer (140 mM sodium chloride, 2 mM potassium chloride, 1 mM magnesium chloride, 1 mM calcium chloride, 10 mM HEPES/Tris, pH 7.5) as positive control at room temperature for 30 min. At the same time, the assay wells were also incubated in the presence of the compound to be investigated in varying concentration in sodium-containing transport assay buffer at room temperature for 30 min. The test substances were appropriately diluted in transport assay buffer (40 μl/well) starting from a 10 mM stock solution in dimethyl sulfoxide. The assay was then started by adding 10 μl/well of a mixture of radiolabeled taurocholic acid ([^3H]-TCA) and unlabeled taurocholic acid. The final concentration of taurocholic acid in the assay was 10 μM. After an incubation time of 60 min at room temperature, the reaction was stopped by adding 100 μl/well of sodium-free transport assay buffer (4° C.), and each well was washed three times with sodium-free transport assay buffer. Finally, 100 μl of scintillation fluid were added to each well, and the radioactivity taken up into the cells was determined in a MicroBeta Scintillation Microplate Reader from Wallac.
The half-maximum inhibitory effect of the test compound (IC50 value, inhibitory concentration 50) was determined in the following way: • 1. Determination of the value for 0% inhibition. This is the measurement in the absence of substance, measured in sodium-containing transport assay buffer. • 2. Determination of the value for 100% inhibition. This is the measurement in the absence of substance, measured in sodium-free transport assay buffer. • 3. Calculation of the percentage inhibitions of those measurements carried out in the presence of various concentrations of the compound to be investigated. It was then possible to find therefrom the concentration of the compound which reduces the uptake of taurocholic acid by 50% (IC50 value).
Turning to `CCCC[C@]1(CC)CS(=O)(=O)c2ccc(N(C)C)cc2[C@@H](c2cccc(NC(=O)N[C@@H]3O[C@H](CO)[C@@H](O)[C@H](OCc4ccccc4)[C@H]3O)c2)[C@H]1O` [Example 1], the IC50 worked out at 4.4 nM.
Turning to `CCCCC1(CCCC)CS(=O)(=O)c2ccc(N(C)C)cc2[C@@H](c2cccc(NC(=O)N[C@@H]3O[C@H](CO)[C@@H](O)[C@H](OCc4ccccc4)[C@H]3O)c2)[C@H]1O` [Example 2], the IC50 is 6.9 nM.
In the case of `CCCC[C@]1(CC)CS(=O)(=O)c2ccc(N(C)C)cc2[C@@H](c2cccc(NC(=O)N[C@@H]3O[C@H](COCc4ccccc4)[C@@H](O)[C@H](OCc4ccccc4)[C@H]3O)c2)[C@H]1O` [Example 3], the IC50 is 3.5 nM.
Under `CCCC[C@]1(CC)CS(=O)(=O)c2ccc(N(C)C)cc2[C@@H](c2cccc(NC(=O)N[C@@H]3O[C@H](COS(=O)(=O)O)[C@@H](O)[C@H](OCc4ccccc4)[C@H]3O)c2)[C@H]1O` [Example 4] stands 2.4 nM; under `CCCC[C@]1(CC)CS(=O)(=O)c2ccc(N(C)C)cc2[C@@H](c2cccc(NC(=O)N[C@@H]3O[C@H](COS(=O)(=O)O)[C@@H](OS(=O)(=O)O)[C@H](OCc4ccccc4)[C@H]3O)c2)[C@H]1O` [Example 5], 2 nM; under `CCCCC1(CCCC)CS(=O)(=O)c2ccc(N(C)C)cc2[C@@H](c2cccc(NC(=O)N[C@@H]3O[C@H](COS(=O)(=O)O)[C@@H](O)[C@H](OCc4ccccc4)[C@H]3O)c2)[C@H]1O` [Example 6], 10.7 nM.
